The results in this text go back to PMC5829257, “Structure, computational and biochemical analysis of PcCel45A endoglucanase from Phanerochaete chrysosporium and catalytic mechanisms of GH45 subfamily C members” (Scientific Reports, 2018).

The target of this assay is T1, PcCel45A (Phanerodontia chrysosporium, UniProt B3Y002).
T1 construct: gene egv; mature single catalytic domain; pEXPYR+ vector, secreted from Aspergillus nidulans A773 (Results text says A. niger)
As to the kind of experiment: X-ray crystallography of the complex. Format: binding. The following applies: bound at +1 and +2 subsites of the active-site groove; crystals in ammonium sulfate, Hepes pH 7.5, MPD.

T1 sequence (B3Y002 entry or part of it): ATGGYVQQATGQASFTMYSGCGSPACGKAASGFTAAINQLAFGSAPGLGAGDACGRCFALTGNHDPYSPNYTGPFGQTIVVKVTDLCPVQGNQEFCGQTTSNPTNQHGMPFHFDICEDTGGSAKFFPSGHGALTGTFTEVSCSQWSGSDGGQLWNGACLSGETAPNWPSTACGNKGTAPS

With `OC[C@H]1O[C@@H](O[C@H]2[C@H](O)[C@@H](O)C(O)O[C@@H]2CO)[C@H](O)[C@@H](O)[C@@H]1O` (stereo partly shown) [cellobiose], the “X-ray crystallography of the complex” value is recorded as “The structure of the PcCel45A-cellobiose complex revealed a single cellobiose molecule within the active-site groove”.
